Experimental data published in ChEMBL document CHEMBL4823254, “Tetrahydroquinoline-Capped Histone Deacetylase 6 Inhibitor SW-101 Ameliorates Pathological Phenotypes in a Charcot-Marie-Tooth Type 2A Mouse Model” (J Med Chem, 2021).

Key:
[1] = target: T1, Protein deacetylase HDAC6 (Homo sapiens, UniProt Q9UBN7)
T1 sequence (Q9UBN7 whole entry): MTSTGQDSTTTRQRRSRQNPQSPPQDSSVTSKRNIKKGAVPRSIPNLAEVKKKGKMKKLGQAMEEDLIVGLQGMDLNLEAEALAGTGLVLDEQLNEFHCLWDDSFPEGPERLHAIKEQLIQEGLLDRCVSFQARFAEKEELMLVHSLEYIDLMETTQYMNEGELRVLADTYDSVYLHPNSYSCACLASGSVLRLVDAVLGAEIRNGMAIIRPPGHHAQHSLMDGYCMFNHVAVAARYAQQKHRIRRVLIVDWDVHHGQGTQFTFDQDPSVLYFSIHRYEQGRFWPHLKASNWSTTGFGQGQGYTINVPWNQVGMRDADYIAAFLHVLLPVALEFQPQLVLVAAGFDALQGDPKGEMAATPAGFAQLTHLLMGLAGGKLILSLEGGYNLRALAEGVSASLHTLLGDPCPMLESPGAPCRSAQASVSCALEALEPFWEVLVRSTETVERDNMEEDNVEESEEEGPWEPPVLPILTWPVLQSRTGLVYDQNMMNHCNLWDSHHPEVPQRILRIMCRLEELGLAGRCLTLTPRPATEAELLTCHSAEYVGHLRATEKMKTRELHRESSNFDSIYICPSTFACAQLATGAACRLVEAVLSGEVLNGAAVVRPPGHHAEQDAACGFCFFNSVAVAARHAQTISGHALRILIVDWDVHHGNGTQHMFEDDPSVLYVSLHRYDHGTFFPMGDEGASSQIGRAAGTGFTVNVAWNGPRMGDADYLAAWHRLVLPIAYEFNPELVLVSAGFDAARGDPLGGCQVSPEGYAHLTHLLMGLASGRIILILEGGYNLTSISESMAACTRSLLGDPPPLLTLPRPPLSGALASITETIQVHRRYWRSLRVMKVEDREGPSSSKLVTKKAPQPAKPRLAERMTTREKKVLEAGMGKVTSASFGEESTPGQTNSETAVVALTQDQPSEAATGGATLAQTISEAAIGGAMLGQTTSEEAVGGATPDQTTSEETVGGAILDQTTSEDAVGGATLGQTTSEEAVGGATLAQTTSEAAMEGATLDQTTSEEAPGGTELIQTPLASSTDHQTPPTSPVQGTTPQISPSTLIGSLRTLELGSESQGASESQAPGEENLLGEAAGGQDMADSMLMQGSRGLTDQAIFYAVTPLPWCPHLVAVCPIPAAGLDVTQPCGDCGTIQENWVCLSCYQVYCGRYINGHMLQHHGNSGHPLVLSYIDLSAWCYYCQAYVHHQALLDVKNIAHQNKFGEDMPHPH
Description: Inhibition of recombinant human HDAC6 using Ac-GAK(Ac)-AMC as substrate preincubated for 10 mins followed by substrate addition and measured after 30 mins by fluorescence-based assay

Histone deacetylase 1 [2] = target: T2, Histone deacetylase 1 (Homo sapiens, UniProt Q13547)
Target sequence in this assay (Q13547 whole entry): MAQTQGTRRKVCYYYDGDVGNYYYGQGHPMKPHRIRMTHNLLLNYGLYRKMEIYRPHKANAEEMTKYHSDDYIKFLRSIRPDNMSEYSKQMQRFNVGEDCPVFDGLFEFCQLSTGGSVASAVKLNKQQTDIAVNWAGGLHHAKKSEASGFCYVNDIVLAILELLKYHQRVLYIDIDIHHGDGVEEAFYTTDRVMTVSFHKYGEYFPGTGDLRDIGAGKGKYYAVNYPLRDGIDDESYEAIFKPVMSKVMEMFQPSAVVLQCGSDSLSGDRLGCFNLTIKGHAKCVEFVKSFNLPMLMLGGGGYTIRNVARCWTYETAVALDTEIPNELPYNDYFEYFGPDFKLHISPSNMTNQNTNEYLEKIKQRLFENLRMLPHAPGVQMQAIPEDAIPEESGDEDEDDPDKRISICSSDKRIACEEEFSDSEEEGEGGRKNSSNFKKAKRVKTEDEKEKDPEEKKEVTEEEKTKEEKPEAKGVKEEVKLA
Description: Inhibition of recombinant human HDAC1 using Ac-GAK(Ac)-AMC as substrate preincubated for 10 mins followed by substrate addition and measured after 30 mins by fluorescence-based assay

[3] = target: T3, Protein deacetylase HDAC6 (Mus musculus) (UniProt Q9Z2V5); experiment: Inhibition of HDAC6 in mouse Neuro2a cells assessed as fold increase in ratio of acetylated alpha-tubulin to alpha tubulin at 1 uM incubated for overnight by Western blot analysis; assay type: cell-based; conditions: time 12.0 hrs
T3 sequence (whole entry): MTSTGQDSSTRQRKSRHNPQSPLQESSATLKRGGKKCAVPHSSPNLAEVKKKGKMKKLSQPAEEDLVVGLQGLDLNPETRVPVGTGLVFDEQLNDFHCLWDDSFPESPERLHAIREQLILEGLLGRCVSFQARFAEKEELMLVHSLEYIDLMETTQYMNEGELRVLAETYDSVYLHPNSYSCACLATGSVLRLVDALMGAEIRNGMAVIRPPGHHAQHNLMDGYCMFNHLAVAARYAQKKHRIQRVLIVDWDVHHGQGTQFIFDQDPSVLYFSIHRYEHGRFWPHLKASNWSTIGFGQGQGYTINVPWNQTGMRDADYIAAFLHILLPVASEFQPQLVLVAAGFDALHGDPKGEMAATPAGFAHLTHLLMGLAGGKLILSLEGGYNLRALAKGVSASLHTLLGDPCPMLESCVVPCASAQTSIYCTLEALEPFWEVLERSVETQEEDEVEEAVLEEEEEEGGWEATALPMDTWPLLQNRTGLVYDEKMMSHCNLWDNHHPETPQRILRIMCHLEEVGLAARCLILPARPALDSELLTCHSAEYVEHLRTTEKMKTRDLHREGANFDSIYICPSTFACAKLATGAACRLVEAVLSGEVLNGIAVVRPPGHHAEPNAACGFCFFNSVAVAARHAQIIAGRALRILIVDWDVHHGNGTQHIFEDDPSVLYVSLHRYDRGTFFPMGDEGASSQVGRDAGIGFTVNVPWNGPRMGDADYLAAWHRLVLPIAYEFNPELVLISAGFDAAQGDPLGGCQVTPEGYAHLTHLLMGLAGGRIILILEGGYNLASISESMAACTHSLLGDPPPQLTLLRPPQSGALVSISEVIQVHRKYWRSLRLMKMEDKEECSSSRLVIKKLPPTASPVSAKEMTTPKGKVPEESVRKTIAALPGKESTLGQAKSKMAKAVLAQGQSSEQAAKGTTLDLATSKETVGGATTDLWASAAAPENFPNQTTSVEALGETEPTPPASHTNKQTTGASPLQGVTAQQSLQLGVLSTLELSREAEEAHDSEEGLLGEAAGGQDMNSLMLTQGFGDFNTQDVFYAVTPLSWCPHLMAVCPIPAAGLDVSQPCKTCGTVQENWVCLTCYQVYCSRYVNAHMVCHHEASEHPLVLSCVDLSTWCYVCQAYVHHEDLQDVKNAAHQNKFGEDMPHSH

Histone deacetylase 8 = target: T4, Histone deacetylase 8 (Homo sapiens, UniProt Q9BY41)
T4 sequence (Q9BY41 whole entry): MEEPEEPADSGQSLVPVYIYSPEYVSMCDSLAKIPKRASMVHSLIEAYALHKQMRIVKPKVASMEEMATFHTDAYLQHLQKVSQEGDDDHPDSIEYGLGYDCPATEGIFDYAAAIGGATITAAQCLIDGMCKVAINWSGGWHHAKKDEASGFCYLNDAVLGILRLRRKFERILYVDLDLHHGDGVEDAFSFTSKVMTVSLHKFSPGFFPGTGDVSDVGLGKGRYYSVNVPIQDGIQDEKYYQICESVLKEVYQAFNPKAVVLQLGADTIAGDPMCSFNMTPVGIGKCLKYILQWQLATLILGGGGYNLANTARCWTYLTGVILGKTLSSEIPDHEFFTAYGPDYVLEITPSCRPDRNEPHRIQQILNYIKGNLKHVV
Description: Inhibition of recombinant human HDAC8 using Boc-Lys(TFA)-AMC as substrate preincubated for 10 mins followed by substrate addition and measured after 30 mins by fluorescence-based assay

[4] = target: T3, Protein deacetylase HDAC6 (Mus musculus); experiment: Inhibition of HDAC6 in mouse Neuro2a cells assessed as fold increase in ratio of acetylated alpha-tubulin to alpha tubulin at 0.01 uM incubated for overnight by Western blot analysis; assay type: cell-based; conditions: time 12.0 hrs
[5] = target: Protein deacetylase HDAC6, Homo sapiens (UniProt Q9UBN7); experiment: biochemical
Histone deacetylase 1 [6] = target: T2, Histone deacetylase 1; experiment: biochemical
Target sequence in this assay (Q13547 whole entry, looked up): as the sequence (Q13547 whole entry) above

[7] = Stability in CD1 mouse pooled liver microsomes assessed as parent compound remaining measured at 60 mins in presence of NADPH by LC-MS/MS analysis; assay type: ADME, Microsome; conditions: CD1, mouse, pooled liver microsomes, read-out: Stabilty
[8] = Stability in human pooled liver microsomes assessed as parent compound remaining measured at 60 mins in presence of NADPH by LC-MS/MS analysis; assay type: ADME, Microsome; conditions: pooled liver microsomes, read-out: Stabilty
[9] = Half life in CD1 mouse pooled liver microsomes assessed as parent compound remaining measured up to 60 mins in presence of NADPH by LC-MS/MS analysis; assay type: ADME, Microsome; conditions: CD1, mouse, pooled liver microsomes
[10] = Half life in human pooled liver microsomes assessed as parent compound remaining measured up to 60 mins in presence of NADPH by LC-MS/MS analysis; assay type: ADME, Microsome; conditions: pooled liver microsomes

Compound	IC50 [1] [nM]	IC50 (Histone deacetylase 1 [2]) [nM]	fold change (FC) [3]	IC50 (Histone deacetylase 8) [nM]	fold change (FC) [4]	Ratio IC50 (Homo sapiens)	IC50 [5] [nM]	IC50 (Histone deacetylase 1 [6]) [nM]	remaining at 1 h [7] [%]	remaining at 1 h [8] [%]	half-life [9] [min]	half-life [10] [min]
NC(=O)c1ccc2c(c1)CCCCN2Cc1ccc(C(=O)NO)cc1	2.4	150	1.19	1060	2.4							
O=C(NO)c1ccc(CN2CCCc3cc(F)c(Cl)cc32)cc1			1.53		1.14	550	3.4	1870				
CN1CCc2c(c3ccccc3n2Cc2ccc(C(=O)NO)cc2)C1			1.11		0.91							
N#Cc1ccc2c(c1)CCCN2Cc1ccc(C(=O)NO)cc1	1.3	141		1490								
CC1(C)CCN(Cc2ccc(C(=O)NO)cc2)c2ccc(F)cc21						468	45.1	21100				
N#Cc1ccc2c(c1)CCCCN2Cc1ccc(C(=O)NO)cc1	4.6	248	0.98	2220					80.8	84.9	196	253
O=C(NO)c1ccc(CN2CCCc3cc(Cl)ccc32)c(F)c1			1.38		1.21	1710	12.4	21200	17.2		24.8	
O=C(NO)c1ccc(CN2CCCCc3ccccc32)cc1	5	1320	0.78	5610	0.98				34.7	83.9	39.6	242
CC1(C)CCc2cc(Cl)ccc2N1Cc1ccc(C(=O)NO)cc1						60	328	19600	20.3		25.4	
CCCc1ccc2c(c1)CCC(=O)N2Cc1ccc(C(=O)NO)cc1	12	306		2680								
O=C(NO)c1ccc(CN2C(=O)CCc3cc(Br)ccc32)cc1	0.9	107		743								
CC(c1ccc(C(=O)NO)cc1)N1CCCc2cc(Cl)ccc21 (stereo not given)						22	383	8430				
CC1(C)CCN(Cc2ccc(C(=O)NO)cc2)c2ccc(Cl)cc21						519	37.8	19600	6.8		15.9	
O=C(NO)c1ccc(CN2CCCCc3cc(Br)ccc32)cc1	9	1590		4360								
CC1(C)CCc2cc(F)ccc2N1Cc1ccc(C(=O)NO)cc1						88	161	14100				
O=C(NO)c1ccc(CN2CCCc3cc(Cl)c(F)cc32)cc1			1.5		1.16	670	4.8	3220	19.1		25.7	
O=C(NO)c1ccc(CN2C(=O)CCc3cc(C4CC4)ccc32)cc1	2.7	117		1500								
O=C(NO)c1ccc(CN2CCCc3cc(Cl)c(Cl)cc32)cc1			1.54		1.38	728	3.6	2620				
O=C(NO)c1ccc(CN2CCCc3cc(-c4cc[nH]n4)ccc32)cc1	0.3	184	2.14	792	2.65							
O=C(NO)c1ccc(C(=O)N2CCCc3cc(Cl)ccc32)cc1						11	961	10500				
